Experimental data reported in paper PMC3515450, “Mechanistic and Structural Understanding of Uncompetitive Inhibitors of Caspase-6” (PLoS ONE, 2012).

Legend:
Format in all cases: biochemical
[1] = target: T1, caspase-3 (Homo sapiens, UniProt P42574); test: Caspase-3 enzymatic assay with divalent R110 substrates
T1 construct: as the catalytic domain consisting of large p20 and small p10 subunits without prodomain; made in house
T1 sequence (P42574 29-175 limits assumed): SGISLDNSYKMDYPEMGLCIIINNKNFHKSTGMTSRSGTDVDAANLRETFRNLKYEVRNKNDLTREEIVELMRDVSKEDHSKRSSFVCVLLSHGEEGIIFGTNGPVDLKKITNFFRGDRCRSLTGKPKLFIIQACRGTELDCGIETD
T1 sequence (P42574 176-277 limits assumed): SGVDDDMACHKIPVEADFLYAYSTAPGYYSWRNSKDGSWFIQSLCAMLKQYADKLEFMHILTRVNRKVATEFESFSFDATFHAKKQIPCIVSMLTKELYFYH
Protocol: (§1) The in vitro enzymatic caspase assays utilize synthetic tetrapeptide substrates labeled with the fluorophores Rhodamine110 (R110) or 7-amino-4-methylcoumarin (AMC) at the P1 aspartic acid (Asp) residue. All assays were performed in 384-well plates in 12 µL reaction volume consisting of enzyme, substrate and indicated concentration of inhibitor or DMSO in assay buffer (50 mM HEPES [pH 7.0], 25 mM MgSO4, 0.5 mM EGTA, 5 mM Glutathione (GSH), 0.01% Triton X-100 containing 0.1% Bovine Gamma Globulin (BGG)). All inhibitors were serially diluted in 100% DMSO prior to dilution in assay buffer and transfer to assay plate. DMSO was diluted into assay buffer similarly for blank wells (no enzyme or compound) and final DMSO concentration was 1%. The concentration of caspase-6 used in enzymatic reactions typically varied between 1–10 nM depending on substrate used. Unless otherwise indicated, substrate concentration was within 3-fold of the determined Kmapparent (5 µM (Ac-VEID)2R110 [Kmapp = 8 µM]; 5 µM (Ac-DEVD)2R110 [Kmapp = 8 µM]; 25 µM (Ac-IETD)2R110 [Kmapp = 70 µM]; 25 µM (Ac-WEHD)2R110 [Kmapp = 70 µM]; 10µM Ac-VEID-AMC [Kmapp = 16µM]; 5 µM Ac-VEID-R110 [Kmapp = 8 µM]). The concentration of substrate utilized in selectivity assays for each caspase isoform was also held as close to Kmapparent as reasonably achievable (Table S1). Caspases-3 and -7 were expressed and purified at Genentech as the catalytic domain consisting of large p20 and small p10 subunits without prodomain. For all caspase enzymatic assays, the reaction plate was incubated at room temperature for 40 minutes and then read on Envision (Perkin Elmer) fluorescent plate reader at excitation/emission wavelengths of 485/535 nm (R110) or 350/450 nm (AMC).
The endpoint fluorescent emission (RFU) in each well was plotted as a function of inhibitor concentration and the 50% inhibition (IC50) values were determined using a nonlinear least squares fit of the data to a four parameter equation using Prism 5.0 software (GraphPad Software, San Diego, CA). […]

[2] = target: T2, caspase-7 (Homo sapiens, UniProt P55210); test: Caspase-7 enzymatic assay with divalent R110 substrate; details: caspase-7, (DEVD)2R110 substrate
T2 construct: as the catalytic domain consisting of large p20 and small p10 subunits without prodomain; made in house
T2 sequence (P55210 24-198 limits assumed): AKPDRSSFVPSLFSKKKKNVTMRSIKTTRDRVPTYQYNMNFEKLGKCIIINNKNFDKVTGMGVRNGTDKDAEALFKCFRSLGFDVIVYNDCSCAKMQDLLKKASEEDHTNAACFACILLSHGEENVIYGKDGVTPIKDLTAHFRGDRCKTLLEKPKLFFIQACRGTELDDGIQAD
T2 sequence (P55210 207-303 limits assumed): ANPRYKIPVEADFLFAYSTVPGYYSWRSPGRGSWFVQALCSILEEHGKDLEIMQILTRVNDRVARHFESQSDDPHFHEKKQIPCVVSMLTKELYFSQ
Protocol: as §1, with “The concentration of caspase-6 used in enzymatic reactions typically varied between 1–10 nM depending on substrate used.” left out, “The concentration of substrate utilized in selectivity assays for each caspase isoform was also held as close to Kmapparent as reasonably achievable (Table S1). Caspases-3 and -7 were expressed and purified at Genentech as the catalytic domain consisting of large p20 and small p10 subunits without prodomain.” left out, “(AMC). […]” for “(AMC).”

[3] = target: T3, caspase-6 (Homo sapiens, UniProt P55212); test: Cleavage of Lamin A by purified human caspase-6 (western blot); details: 100 µM concentration
T3 construct: Residues 24-179 and 194-293 from caspase-6 cDNA (Origene) were cloned into pET-24b and pET-23b vectors; 6x histidine tag (C); made in house; host or cells: E. coli BL21 (DE3) pLysS
T3 sequence (P55212 24-179): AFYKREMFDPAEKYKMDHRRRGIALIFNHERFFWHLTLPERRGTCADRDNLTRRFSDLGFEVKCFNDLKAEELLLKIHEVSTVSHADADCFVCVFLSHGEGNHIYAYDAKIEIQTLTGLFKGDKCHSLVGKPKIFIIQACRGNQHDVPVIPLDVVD
T3 sequence (P55212 194-293): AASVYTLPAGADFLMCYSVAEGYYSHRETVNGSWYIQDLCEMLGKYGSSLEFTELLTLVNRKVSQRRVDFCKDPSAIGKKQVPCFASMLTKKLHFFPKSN
Protocol: The assay to monitor cleavage of Lamin A by purified human caspase-6 is described in Experimental Procedures S1.
Cleavage of Lamin A by purified human Caspase-6: Recombinant caspase-6 was prepared at 6.6 nM final concentration in assay buffer (40 mM HEPES [pH 7.2], 100 mM NaCl, 1 mM EDTA, 2 mM DTT, 0.1% CHAPS, 3% DMSO), and pre-incubated at 37 °C with increasing concentrations (as indicated) of the compound to be assayed. After 30 minutes, GST-tagged Lamin A substrate (Abnova, Cat# H00004000-P01) was added to the reaction mix at a final concentration of 0.33 µM and the incubation was continued for 2 h at 37 °C. Samples were boiled for 5 min to terminate the proteolytic cleavage reaction before they were resolved by SDS-PAGE (10-20% Tris-glycine gel) and transferred to nitrocellulose. The blot was probed with mouse anti-Lamin A antibody (Abnova # H00004000-B01P) and detected with IRDye800 anti-mouse antibody (LI-COR #926-32210). […] Imaging was done on the LI-COR Odyssey® Infrared Imaging System using the 800 nm channel.

[4] = target: T3, caspase-6; test: Steady-state Michaelis-Menten kinetic analysis of caspase-6
Protocol: as §1
The endpoint fluorescent emission (RFU) in each well was plotted as a function of inhibitor concentration and the 50% inhibition (IC50) values were determined using a nonlinear least squares fit of the data to a four parameter equation using Prism 5.0 software (GraphPad Software, San Diego, CA). […] Ki values for Compound 3 were calculated using this equation: Ki = IC50/(Km/[S] +1). Concentration-response curves for each inhibitor were normalized to zero and 100% based on no enzyme or DMSO control, respectively. For steady-state kinetic analysis, initial reaction velocity (RFU/minute) was plotted against substrate concentration at each inhibitor concentration and the data was fit to a hyperbolic Michaelis-Menten model using Prism 5.0 software. Km (µM) and Vmax (RFU/minute) were calculated by using this equation: v = Vmax • [S]/Km+[S] where v = initial reaction velocity at indicated substrate concentration (S). Vmax values were normalized to zero and 100% based on no enzyme or DMSO control, respectively.

- IC50 ([1]; caspase-3, (DEVD)2R110 substrate): > 100 µM
- IC50 ([1]; caspase-3, (VEID)2R110 substrate): > 100 µM
- IC50 [2]: > 100 µM
- inhibition of caspase-6 cleavage of recombinant Lamin A [3]: did not inhibit
- Vmax (% of DMSO control) for (VEID)2R110 ([4]; 3 nM of 3): 77.51 % of DMSO control
- Vmax (% of DMSO control) for (VEID)2R110 ([4]; 10 nM of 3): 55.35 % of DMSO control
- Vmax (% of DMSO control) for (VEID)2R110 ([4]; 30 nM of 3): 31.09 % of DMSO control
- Vmax (% of DMSO control) for (VEID)2R110 ([4]; 100 nM of 3): 14.10 % of DMSO control
- mechanism of inhibition ([4]; (DEVD)2R110 substrate): uncompetitive
- mechanism of inhibition ([4]; (VEID)2R110 substrate): uncompetitive
SMILES: COc1ccc(-c2cc(C(=O)N[C@@H](CO)Cc3cccc(C#N)c3)co2)cc1OC [Compound 3]
